Test results reported in paper PMC11137182, “Selective and brain-penetrant ACSS2 inhibitors target breast cancer brain metastatic cells” (Frontiers in Pharmacology, 2024).

What was measured:
FASN = assay: Immunoblot of FASN protein levels; format: cell-based; conditions: MDA-MB-231BR cells, 24 h
Protocol: Immunoblotting protocols have been previously described. Briefly, cell lysates from one to five x 10^6 cells were prepared in radioimmune precipitation assay buffer (150 mM NaCl, 1% NP40, 0.5% DOC, 50 mM Tris HCL at pH 8, 0.1% SDS, 10% glycerol, 5 mM EDTA, 20 mM NaF, and 1 mM Na3VO4) supplemented with 1 μg/mL each of pepstatin, leupeptin, aprotinin, and 200 μg/mL PMSF. Lysates were cleared by centrifugation at 16,000 x g for 15 min at 4°C and analyzed by SDS-PAGE and autoradiography with chemiluminescence. Proteins were analyzed by immunoblotting using primary antibodies indicated above.

[1] = system: 4T1BR tumor bearing brain slices; assay: Ex vivo tumor-brain slice model; parameters: species or system nu/nu mice; conditions: 4T1BR brain slices, 100 μM, 6 days, bioluminescence
Protocol: Ex vivo brain slice tumor model was performed as previously described ([Ciraku et al., 2021]). Briefly, Nu/Nu athymic 4–6 week old mice Charles River Laboratories (Wilmington, MA, United States) were immobilized using the Just for Mice Stereotaxic Frame (Harvard Apparatus, Holliston, MA, United States) and injected intracranially with 5uL of 20,000 cells/uL solution of luciferase tagged MDA-MB-231BR or 4T1BR cells. Tumor growth was monitored via bioluminescence imaging on the IVIS system (Perkin Elmer, Waltman, MA, United States). Organotypic hippocampal cultures were prepared as described previously ([Ciraku et al., 2021]). Briefly, adult mice (4–6 weeks) or mice after 12 days following intracranial injection were decapitated and their brains rapidly removed into ice-cold (4°C) sucrose-aCSF composed of the following (in mM): 280 sucrose, 5 KCl, 2 MgCl2, 1 CaCl2, 20 glucose, 10 HEPES, 5 Na^+-ascorbate, 3 thiourea, 2 Na^+-pyruvate; pH = 7.3. […] Tumor growth was monitored via bioluminescence imaging on the IVIS 200 system (Perkin Elmer), and results were analyzed using Living Image software (Caliper Life Sciences, Waltham, MA, United StatesUnited States). […] Tissues were incubated at 37 ℃ , 5% CO2 for 4 h, and absorbance at 490 nm was measured with a Tecan Spark Microplate reader.

MDA-MB-231BR cells = assay: Clonogenic survival assay; format: cell-based; conditions: 100 μM, 48 h treatment, 10 days growth
Protocol: Triple-negative brain trophic cells MDA-MB-231BR and 4T1BR cells were a kind gift from Dr. Patricia Steeg (Center for Cancer Research, National Cancer Institute) ([Achrol et al., 2019]). Both cell lines were cultured in DMEM supplemented with 10% fetal bovine serum (FBS), 5% 10,000 Units/mL Penicillin-10,000 μg/mL Streptomycin, and 5% 200 mM L-Glutamine. For crystal violet staining, 5 × 10^4 cells were plated and subjected to the treatments as described in the individual figures and then stained with 0.5% crystal violet prepared in a 1:1 methanol-water solution followed by PBS washes. ACSS2 inhibitors were dissolved in 100% ultra-pure DMSO.
To assess clonogenic survival, 1 × 10^5 cells were seeded into a 6-well plate until 70%–80% confluency and treated for 48 h with analogs at 100 uM (unless otherwise stated in the figure legend). After 48 h, cells were trypsinized and counted using hemocytomer, and 1 × 10^4 cells per treatment were plated into a 6-well plate with fresh culture medium and allowed to grow for 10 days. Following 10-day incubation, cells were washed twice with PBS, stained with crystal violet for 30 min, and washed with dH2O twice. Colonies >50mircons were counted. For crystal violet staining, 0.5% crystal violet was prepared in a 1:1 methanol-water solution.

[2] = BBB permeability in vivo (LC-MS, brain over blood); parameters: species or system BalbC mice; conditions: mice, 50 mg/kg intraperitoneal, 30 min (AD-5584) or 1 h (AD-8007, VY-3-135)
Protocol: Human ACSS2 inhibitors were prepared in 10 mg/mL saline solution. BalbC 4–6 week-old mice were weighed and injected with 50 mg/kg or 100 mg/kg of drug saline solution via intraperitoneal injection. After 30 min or 60 min, mice treated with AD-5584 or AD-8007 and VY-3-135 were placed in isoflurane, and blood was extracted and perfused via intracardiac injection. Following perfusion, mice were decapitated, and their brains were rapidly removed into ice-cold PBS. For analysis of blood samples, 200 µL of blood was transferred and allowed to clot for 15 min at room temperature. Samples were precipitated at 16000xg for 1 min, and 50 µL of serum was transferred. To serum, 200 µL of methanol was added, and samples were centrifuged at 16000 g for 5 min. The supernatant was analyzed by LCMS. For analysis of brain samples, brains were homogenized via bead beating using four 2.3 mm stainless steel beads in 1 mL of MeOH and 0.5 mL of H2O. After centrifugation for 15 min at 3000xg, the supernatant was analyzed by LCMS. LCMS was performed on an Acquity I-Class UPLC system coupled to a Synapt G2Si HDMS mass spectrometer in positive ion mode with a heated electrospray ionization (ESI) source in a Z-spray configuration. […] Data was analyzed using Waters MassLynx and Waters Unifi. Calibration curves of authentic standards were used for quantification.

N[C@H](C(=O)N1CCCC(c2ccccc2)(c2ccccc2)C1)C1CC1 [AD-8007]
protein levels of FASN (FASN): reduced protein levels of FASN | tumor growth of preformed tumors ex vivo [1]: significantly reduced tumor growth of preformed tumors | clonogenic survival (MDA-MB-231BR cells): significant reduction in clonogenic survival | level of drug in the brain over blood [2]: detected at significantly higher levels in the brain compared to VY-3-135
